Test results reported in patent US12496291B1, “Ready-to-use non-aqueous oral solution of losartan” (Liqmeds Worldwide Limited, priority 2024, dated 2025).

Assays:
[1] = descriptive term; cited from earlier work
[2] = Solubility study of losartan potassium with different solubilizers and pH modifying agent; assay type: physicochemical; settings: losartan potassium 10 mg/mL, below pH 5.5, citrate buffer 50 mM plus solubilizer
Text: The solubility of losartan potassium below pH 5.5 was checked in the presence of different solubilizers and pH modifying agent.

For `CCCCc1nc(Cl)c(CO)n1Cc1ccc(-c2ccccc2-c2nnn[nH]2)cc1.[K]` [Losartan potassium, 2-butyl-4-chloro-1-[p-(o-1H-tetrazol-5-ylphenyl)benzyl]imidazole-5-methanol monopotassium salt], the Solubility in alcohols [1] is given as “soluble”, the Solubility in chloroform [1] is given as “practically insoluble” and the “Solubility in common organic solvents, such as acetonitrile and methyl ethyl ketone” value [1] is given as “slightly soluble”. The Solubility in water [1] was “freely soluble” and the “Observations (solubility of losartan potassium)” value [2] was “insolubility”.
